These are literature values, as cited in patent EP0836475B1, “CONTROLLED RELEASE FORMULATIONS FOR POORLY SOLUBLE DRUGS” (ELAN CORPORATION, Plc, priority 1995, dated 1997).

For this series the following is noted: ibuprofen from Lutrol-F68.

Each structure is given as a SMILES string.

For the compound `CC(C)Cc1ccc(C(C)C(=O)O)cc1` (stereo not shown) [ibuprofen], the “T50 value of in vitro release” value was “approximately 30 min”.
